Laboratory results reported in patent publication EP0733365A2, “Use of benzoquinolin-3-ones for the treatment and prevention of prostatic cancer” (priority 1995, dated 1996).
Where “and” joins values, the source holds several entries; their conditions need not be identical. Identical values can stand only once. Like-named read-outs stand apart in the source and are kept apart here.

Target: T1, Type I 5α-reductase (Homo sapiens, UniProt P18405)
T1 construct: Scalp punch biopsies from graft recipient sites were obtained; from tissue; host or cells: human scalp skin (punch biopsies from hair transplant procedures); 100,000 x g pellet of the homogenate
T1 sequence (P18405 1-259): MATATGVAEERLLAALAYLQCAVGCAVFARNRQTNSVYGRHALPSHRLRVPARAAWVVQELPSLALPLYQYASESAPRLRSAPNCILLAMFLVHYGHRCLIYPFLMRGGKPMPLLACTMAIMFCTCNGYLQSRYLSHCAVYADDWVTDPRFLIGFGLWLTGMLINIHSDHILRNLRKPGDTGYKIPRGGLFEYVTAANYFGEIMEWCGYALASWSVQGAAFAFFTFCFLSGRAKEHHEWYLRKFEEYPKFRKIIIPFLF
Test: Human Type I steroid 5α-reductase homogenate assay (conversion of [3H]-testosterone to [3H]-DHT and other 5α-reduced metabolites)
Type: biochemical
Procedure: Methodology of Human Type I Steroid 5α-Reductase Assays
Preparation of Type I 5α-Reductase from Human Scalp: Scalp punch biopsies from graft recipient sites were obtained, following the proper Informed Consent and Institutional Review Board guidelines, from human hair transplant procedures immediately after surgery and were frozen on dry ice and stored at -80°C. Approximately 60-75 punches from one surgical procedure were used to generate an enzyme preparation. The subcutaneous tissue was cut away and discarded. The skin was frozen with liquid nitrogen and pulverized to powder. The powder was homogenized in 30 mL of ice-cold buffer (20 mM Tris-HCl, pH 7.5) using a Brinkmann Polytron (Westbury, NY) with a PTA 10-S probe and a setting of 7. The homogenization procedure consisted of four 15 second pulses. Connective tissue was cleared from the probe with forceps between pulses. The homogenate was then filtered through cheese cloth and the filtrate centrifuged at 100,000 x g for one hour in a Beckman L8-60M ultracentrifuge. The pellet was resuspended by homogenization with a Dounce homogenizer using the same buffer solution. An aliquot was taken for protein determination by the Lowry method, Lowry, et al., Protein Measurement with the Folin Phenol Reagent, J. Biol. Chem., 193, 265-75 (1951). Aliquots of the enzyme preparation were stored at -80° until use. Human 5α-Reductase Homogenate Assay: This enzyme assay is based on the conversion of [^3H]-testosterone to [^3H]-5α -dihydrotestosterone (DHT) and other 5α-reduced metabolites. […] In a total volume of 1.0 mL, the Type I assay contained 2.6 µCi [^3H]-testosterone (50 nM), 500 µM of reduced nicotine adenine dinucleotide phosphate, 100 mM Tris-HCl, pH 7.5, (in Type II assays, 40 mM sodium acetate at pH 5.5 is used instead of Tris-HCl) and test compounds as indicated. Test compounds were added in 20 µL of dimethylsulfoxide (20 µL of dimethylsulfoxide was added to blanks and controls). The reaction was initiated by the addition of 0.5 mg of Type I 5α-reductase. The reaction mixture was incubated at 25° for 180 min, and terminated by the addition of 1 mL ice-cold stopping solution. The stopping solution contained 40 µM each of non-radioactive testosterone, DHT, androstenedione, androstanedione, androsterone, androstan-3β17β- diol, and androstan-3α,17β-diol. The samples were prepared for high performance liquid chromatography by solid phase extraction. Disposable solid matrix extraction columns (C-18 reversed phase, 6 mL, 500 mg; Bond Elut™ from Analytichem International; Harbor City, CA) were conditioned by washing with 5 mL of methanol followed by 5 mL of deionized water. The reaction mixtures were then applied to the columns. The columns were subsequently washed with 5 mL of acetone:water (1:4), followed by 0.3 mL of methanol. The samples were then eluted with 3 mL of methanol and collected in 20 mL scintillation vials. Three mL of water was then added to each scintillation vial. The solutions were then transferred to tubes and centrifuged for 30 min at 1000 x g to remove any particulate material before chromatography. The [^3H]-testosterone substrate and its metabolites were separated by chromatography using a C-18 reversed phase column (Beckman Ultrasphere 5µm spherical 80A pore, part no. 235329, 4.6 mm i.d. x […]) with an isocratic mobile phase (46 water: 46 methanol: 8 tetrahydrofuran by volume). The column temperature was maintained at 35° and the flow rate was 1.5 mL/min. A 400 µL aliquot was injected onto the column and radioactivity was determined using a Beckman 171 in-line flow radioisotope detector in conjunction with Rainin Dynamax™ software and a Macintosh computer. The flow rate of the Atomflow™ scintillation fluid was 4.5 mL / min.

[1] = 0.3 µM concentration of compound, compared to control reaction mixtures
[2] = 0.3 µM concentration of compound, compared to control reaction mixtures, 0.3 µM
[3] = 0.3 µM concentration of compound, compared to control reaction mixtures, read-out: percent inhibition of Type I 5AR

Row | Molecule | percent inhibition of Type I 5AR [1] | inhibition at 0.3 µM [3] [%] | also measured
1 | CN1C(=O)CC[C@]2(C)c3ccc(Sc4nc5c(ccc6ccccc65)s4)cc3CC[C@@H]12 [Example 163, (+)-(4aR)-(10bR)-4-methyl-8-(2-naphtho〈1,2-d〉-thiazolylthio)-10b-methyl-1,2,3,4,4a 5,6,10b-octahydrobenzo[f]-quinolin-3-one] | 80% |  | 
2 | CN1C(=O)CC[C@]2(C)c3ccc(CCc4ccccc4)cc3CC[C@@H]12 [Example 280, (4aR)-(10bR)-4,10b-dimethyl-8-(2-phenylethyl)-1,2,3,4,4a,5,6,10b-octahydrobenzo[f]quinolin-3-one] |  |  | percent inhibition of Type I 5AR [2]: 100%
3 | C[C@]12CCC(=O)N[C@@H]1CCc1cc(-c3cnc4ccccc4c3)ccc12 (single isomer, unassigned) [Example 45] |  | 11 | 
4 | Cc1cccc2sc(Sc3ccc4c(c3)CC[C@H]3N(C)C(=O)CC[C@]43C)nc12 [Example 159, (+)-(4aR)-(10bR)-4-methyl-8-(4-methyl-2-benzothiazolylthio)-10b-methyl-1,2,3,4,4a,5,6,10b-octahydrobenzo[f]quinolin-3-one] | 87, 87% | 87 | 
5 | CN1C(=O)CC[C@]2(C)c3ccc(-c4ccc(NS(C)(=O)=O)cc4)cc3CC[C@@H]12 [Example 123, (+)-(4aR)-(10bR)-4-methyl-8-(4-methylsulfonamidophenyl)-10b-methyl-1,2,3,4,4a,5,6,10b-octahydrobenzo[f]quinolin-3-one] |  | 10 | 
6 | CN1C(=O)CC[C@]2(C)c3ccc(C=Cc4ccccc4)cc3CC[C@@H]12 [Example 285, (4aR)-(10bR)-4,10b-dimethyl-8-(2-phenylethenyl)-1,2,3,4,4a,5,6,10b-octahydrobenzo[f]quinolin-3-one] |  |  | percent inhibition of Type I 5AR [2]: 93%
7 | (+)-(4aR)-(10bR)-4-methyl-8-(2-[6-benzyloxy]naphthyl)-10b-methyl-1,2,3,4,4a,5,6,10b-octahydrobenzo[f]quinolin-3-one [Example 62] | 45% |  | 
8 | CN1C(=O)CC[C@]2(C)c3ccc(-c4cccc5ccccc45)cc3CC[C@@H]12 [Example 53, (+)-(4aR)-(10bR)-4-methyl-8-(1-naphthyl)-10b-methyl-1,2,3,4,4a,5,6,10b-octahydrobenzo[f]quinolin-3-one] |  |  | percent inhibition of Type I 5AR [2]: 100% and 66%
9 | C[C@]12CCC(=O)N[C@@H]1CCc1cc(Sc3ccccc3Cl)ccc12 (single isomer, unassigned) [Example 7] |  | 49 | 
10 | C[C@]12CCC(=O)N[C@@H]1CCc1cc(-c3cnc4ccccc4c3)ccc12 [Example 196, (+)-(4aR)-(10bR)-8-(3-quinolinyl)-10b-methyl-1,2,3,4,4a,-5,6,10b-octahydrobenzo[f]quinolin-3-one] | 11% |  | 
11 | (+)-(4aR)-(10bR)-4-methyl-8-(3-[1-benzyl-4-piperidinylcarboxamidolphenyl)-10b-methyl-1,2,3,4,4a,5,6,10b-octahydrobenzo[f]quinolin-3-one [Example 209] | 24% |  | 
12 | CN1C(=O)CC[C@]2(C)c3ccc(-c4ccc(Cl)cc4)cc3CC[C@@H]12 [Example 50, (+)-(4aR)-(10bR)-4-methyl-8-(4-chlorophenyl)-10b-methyl-1,2,3,4,4a,5,6,10b-octahydrobenzo[f]quinolin-3-one] |  |  | percent inhibition of Type I 5AR [2]: 94%
13 | CN1C(=O)CC[C@]2(C)c3ccc(-c4cc(F)c(F)c(F)c4)cc3CC[C@@H]12 [Example 206, (+)-(4aR)-(10bR)-4-methyl-8-(3,4,5-trifluorophenyl)-10b-methyl-1,2,3,4,4a,5,6,10b-octahydrobenzo[f]quinolin-3-one] |  |  | percent inhibition of Type I 5AR [2]: 100%
14 | C[C@]12C=CC(=O)N[C@@H]1CCc1cc(-c3cc4ccccc4cn3)ccc12 [Example 142, (+)-(4aR)-(10bR)-8-(3-isoquinolinyl)-10b-methyl-3,4,4a,5,6,10b-hexahydrobenzo[f]quinolin-3-one] |  | 22 | 
15 | CN1C(=O)CC[C@]2(C)c3ccc(Sc4nc5c(Cl)cccc5s4)cc3CC[C@@H]12 [Example 164, (+)-(4aR)-(10bR)-4-methyl-8-(4-chloro-2-benzothiazolylthio)-10b-methyl-1,2,3,4,4a,5,6,10b-octahydrobenzo[f]quinolin-3-one] |  |  | percent inhibition of Type I 5AR [2]: 87%
16 | CN1C(=O)CC[C@]2(C)c3ccc(C=Cc4ccccc4)cc3CC[C@@H]12 [Example 279, (4aR)-(10bR)-4,10b-dimethyl-8-(2-phenylethenyl)-1,2,3,4,4a,5,6,10b-octahydrobenzo[f]quinolin-3-one] |  |  | inhibition at 0.3 µM (read-out: percent inhibition of Type I 5AR, 0.3 µM concentration of compound, compared to control reaction mixtures): 85%

Continued, in another order:

Row | percent inhibition of Type I 5AR [1] | inhibition at 0.3 µM [3] [%] | Molecule | also measured
17 |  | 87 | CN1C(=O)CC[C@]2(C)c3ccc(/C=C/c4ccc5ccccc5n4)cc3CC[C@@H]12 [Example 283, (4aR)-(10bR)-4,10b-dimethyl-8-(2-[2-quinolinyl]ethenyl)-1,2,3,4,4a,5,6,10b-octahydrobenzo[f]quinolin-3-one] | 
18 | 47% |  | (+)-(4aR)-(10bR)-4-methyl-8-(2aR,4S-1-benzoyl-4-dipropylamino-2,2a,3,4-tetrahydrobenz[cd]-1H-indol-7-yl)-10b-methyl-1,2,3,4,4a,5,6,10b-octahydrobenzo[f]quinolin-3-one [Example 225] | 
19 |  | 75 | CN1C(=O)CC[C@]2(C)c3ccc(/C=C/c4cnc5ccccc5c4)cc3CC[C@@H]12 [Example 282, (4aR)-(10bR)-4,10b-dimethyl-8-(2-[3-quinolinyl]ethenyl)-1,2,3,4,4a,5,6,10b-octahydrobenzo[f]quinolin-3-one] | 
20 | 86% |  | CN1C(=O)CC[C@]2(C)c3ccc(-c4ccc(-c5ccc(NC(=O)C(C)(C)C)s5)cc4)cc3CC[C@@H]12 [Example 222, (+)-(4aR)-(10bR)-4-methyl-8-(4-[(2-t-butylcarbonylamino]-5-thienyl]phenyl)-10b-methyl-1,2,3,4,4a,5,6,10b-octahydrobenzo[f]quinolin-3-one] | 
21 |  | 75 | CN1C(=O)CC[C@]2(C)c3ccc(/C=C/c4cncc5ccccc45)cc3CC[C@@H]12 [Example 281, (4aR)-(10bR)-4,10b-dimethyl-8-(2-[4-isoquinolinyl]ethenyl)-1,2,3,4,4a,5,6,10b-octahydrobenzo[f]quinolin-3-one] | 
22 | 90% |  | (+)-(4aR)-(10bR)-4-methyl-8-benzyloxycarbonyl-10b-methyl-1,2,3,4,4a,5,6,10b-octahydrobenzo[f]quinolin-3-one [Example 144] | 
23 |  | 54 | CN1C(=O)CC[C@]2(C)c3ccc(-c4ccc5c(c4)CCC5O)cc3CC[C@@H]12 (single isomer, unassigned; (+)) [Example 245] | 
24 | 3% |  | (+)-(4aR)-(10bR)-4-methyl-8-(4-fluoro-3-trifluoromethylphenyl)-10b-methyl-1,2,3,4,4a,5,6,10b-octahydrobenzo[f]quinolin-3-one [Example 46] | 
25 | 16% |  | (+)-(4aR)-(10bR)-4-methyl-8-(2aR,4S-1-benzoyl-4-amino-2,2a,3,4-tetrahydrobenz[cd]-1H-indol-7-yl)-10b-methyl-1,2,3,4,4a,5,6,10b-octahydrobenzo[f]quinolin-3-one [Example 226] | 
